Test results published in patent publication US12187758B2 (ROME Therapeutics, Inc., priority 2022, dated 2025).

What was measured:
Format in all cases: cell-based
THP1-Dual KO-TREX1 cells = test: THP1 TREX1 KO inhibition assay (type 1 interferon response); conditions: Homo sapiens, 144 h, type 1 interferon (QUANTI-LUC), 1 μM 5-aza-2′-deoxycytidine, six days
Experimental: Exemplary compounds were tested for their ability to alter the type 1 interferon response in THP1 Dual TREX1 KG cells treated with 5-aza-2′-deoxycytidine. Assay procedures and results are described below.
THP1 Dual TREX1 KG cells were purchased from Invivogen. The THP1-Dual™ KO-TREX1 cells were cultured in RPMI 1640, 10% heat-inactivated fetal bovine serum, 25 mM HEPES, 10 μg/mL blasticidin, and 100 μg/mL zeocin. THP1-Dual™ KO-TREX1 cells were treated with a dose titration of a test compound alone or in the presence of 1 μM 5-aza-2′-deoxycytidine (Sigma-Aldrich, cat #189825). Type 1 Interferon and cell viability were assessed after six days of treatment.
Stock solution of the test compound was prepared in DMSO followed by a three-fold dilution in DMSO. Additional 50× dilution was prepared in cell culture media for each dilution. 10 μL of diluted test compound was then added to a 96-well plate.
THP1-Dual™ KO-TREX1 cells were treated with either 1×PBS or 1 μM 5-aza-2′-deoxycytidine. […] of the THP1-Dual™ KO-TREX1 cells from either treatment were added to each well of the 96-well plate containing the test compound titration at 50,000 cells/well. Cells were incubated at 37° C., 5% CO2 in a humidified incubator for six days. Cells treated with 1 μM 5-aza-2′-deoxycytidine were added at the same density as above and incubated at 37° C., 5% CO2 in a humidified incubator for six days. On day six, 25 μL of cell supernatant was transferred to a 96-well white-walled plate, followed by addition to each well of 50 μL of QUANTI-LUC solution containing stabilizer. Luminescence was detected on a plate reader according to the manufacturer's instructions.
The remaining cells were assessed for cell viability by adding 25 μL of CellTiter-Glo (Promega, G9683) solution to each well, and being placed on a shaker for 10 minutes at room temperature. Luminescence was detected on a plate reader, according to the manufacturer's instructions.
In the tables “A” represents values≤0.050 μM; “B” represents values from >0.050 μM to ≤0.100 μM; “C” represents values from >0.100 μM to ≤0.250 μM; “D” represents values from >0.250 μM to ≤1 μM; “E” represents values>1 μM; and “NT”=not tested: […]

[1] = test system: SDH-A (succinate dehydrogenase-A); test: Mitochondria toxicity assay with PC3 cells, in-cell ELISA SDH-A; conditions: 5 days treatment
Experimental: (§1) Exemplary compounds were tested for inhibition of expression of mitochondria DNA encoded proteins COX-1 […]. SDH-A (succinate dehydrogenase-A) is a control mitochondria protein encoded by nuclear DNA. Reduction in COX-1 expression indicates off target inhibition of mitochondria DNA synthesis which leads to mitochondrial toxicity. Assay procedures and results are described below.
(§2) PC3 cells were purchased from ATCC and cultured in F-12 Kaighn's modified medium (Hyclone), 10% heat-inactivated fetal bovine serum (Invitrogen), 1% Penicillin-Streptomycin (Invitrogen). PC3 cells were treated with a dose titration of a test compound on 96 well plates for 5 days at 37° C., 5% CO2 in a humidified incubator. The treatment plates are duplicated, one for in-cell ELISA for mitochondria proteins and one for cytotoxicity.
(§3) In-cell ELISA was performed to measure mitochondrial proteins using MitoBiogenesis In-Cell ELISA kit (Abcam) per manufacturer's instruction. The medium was aspirated from the compound treated cells, 100 μl per well of 4% paraformaldehyde (Solarbio) was added and cells were incubated at room temperature for 20 minutes. The cells were washed three times with PBS. 100 μl of 0.5% acetic acid was added per cell, and the cells were incubate at room temperature for 5 minutes. Cells were washed once with PBS. 100 μl per well of Permeabilization Buffer was added, and the cells incubate at room temperature for 30 minutes. The permeabilization buffer was removed and 200 μl per well 2× Blocking Buffer was added and the cells were incubated at room temperature for 2 hours. After removing the Blocking Buffer 100 μl per well of primary antibody to SDH-A or COX-1 was added, and the cells were incubated at 4° C. overnight. The primary antibody solution was removed and cells were washed 3 times with the Wash Buffer. 100 μl per well of AP- and HRP-labelled secondary antibodies was added, and the cells were incubated at room temperature for 1 hour. The cells were then washed 4 times with the Wash Buffer. For SDH-A detection, 100 μl per well AP Development Solution was added, and the cells were incubated at room temperature for 10 minutes. Cells were then read on CLARTO star^plus microplate reader (BMG Labtech) for kinetic readings at 405 nm for 5 minutes. […] The cells were then read on CLARTO star^plus microplate reader (BMG Labtech) for kinetic readings at 600 nm for 15 minutes.
(§4) In the table “A” represents values<1.0 μM; “B” represents values from >1.0 μM to ≤10.0 μM; “C” represents values from >10.0 μM to ≤50.0 μM; “D” represents values from >50.0 μM to ≤100.0 μM; and “E” represents values>100.0 μM.

PC3 cells = test: Mitochondria toxicity assay with PC3 cells, cytotoxicity (Cell Titer Glo); conditions: Homo sapiens, PC-3, 120 h, 5 days treatment
Experimental: as §2
For the cytotoxicity assay, the medium from the cell viability plate was removed, 50 μL per well of Cell Titer Glo (Promega, G9683) was added. Then the cells incubated for 30 minutes at room temperature. Luminescence was read by Envision (PerkinElmer 2105).
as §4

[2] = Mitochondria toxicity assay with PC3 cells, in-cell ELISA COX-1; conditions: 5 days treatment
Experimental: as §1, §2, §3, §4

SMILES	IC50 (THP1-Dual KO-TREX1 cells) [µM]	IC50 [1] [µM]	IC50 (PC3 cells) [µM]	IC50 [2] [µM]
Cc1cn([C@H]2C[C@H](O)[C@](CO)(CCl)O2)c(=O)nc1N [Compound 11, 4-amino-1-((2R,4S,5R)-5-(chloromethyl)-4-hydroxy-5-(hydroxymethyl)tetrahydrofuran-2-yl)-5-methylpyrimidin-2(1H)-one]	> 1	> 100	> 100	> 100
C#C[C@@H]1[C@H](n2ccc(N)nc2=O)O[C@@](CO)(CCl)[C@H]1O [Compound 17, 4-amino-1-((2R,3S,4S,5R)-5-(chloromethyl)-3-ethynyl-4-hydroxy-5-(hydroxymethyl)tetrahydrofuran-2-yl)pyrimidin-2(1H)-one]	> 1	–	–	–
Nc1cnn([C@H]2C[C@H](O)[C@](CO)(CCl)O2)c(=O)n1 [Compound 18, 5-amino-2-((2R,4S,5R)-5-(chloromethyl)-4-hydroxy-5-(hydroxymethyl)tetrahydrofuran-2-yl)-1,2,4-triazin-3(2H)-one]	> 1	–	–	–
C#C[C@@H]1[C@H](n2ccc(N)nc2=O)O[C@](C)(CO)[C@H]1O [Compound 20, 4-amino-1-((2R,3S,4S,5R)-3-ethynyl-4-hydroxy-5-(hydroxymethyl)-5-methyltetrahydrofuran-2-yl)pyrimidin-2(1H)-one]	> 1	–	–	–
N#C[C@]1(CO)O[C@@H](n2cnc3c(N)nc(F)nc32)C[C@@H]1O [Compound 26, (2R,3S,5R)-5-(6-amino-2-fluoro-9H-purin-9-yl)-3-hydroxy-2-(hydroxymethyl) tetrahydrofuran-2-carbonitrile]	> 1	> 100	> 100	50 to 100
C#C[C@]1(CO)O[C@@H](n2cnc3c(N)ncnc32)C[C@@H]1O [Compound 27, (2R,3S,5R)-5-(6-amino-9H-purin-9-yl)-2-ethynyl-2-(hydroxymethyl)tetrahydrofuran-3-ol]	> 1	> 100	> 100	> 100
O=c1nc(NO)ccn1[C@@H]1O[C@@](CO)(CCl)[C@@H](O)[C@H]1F [Compound 28, 1-((2R,3R,4R,5R)-5-(chloromethyl)-3-fluoro-4-hydroxy-5-(hydroxymethyl)tetrahydrofuran-2-yl)-4-(hydroxyamino)pyrimidin-2(1H)-one]	> 1	–	–	–
O=c1ccn([C@@H]2O[C@@](CO)(CCl)[C@@H](O)[C@H]2F)c(=O)[nH]1 [Compound 29, 1-((2R,3R,4R,5R)-5-(chloromethyl)-3-fluoro-4-hydroxy-5-(hydroxymethyl)tetrahydrofuran-2-yl)pyrimidine-2,4(1H,3H)-dione]	> 1	–	–	–
C#C[C@]1(CO)O[C@@H](n2ccc(N)nc2=O)[C@H](F)[C@@H]1O [Compound 32, 4-amino-1-((2R,3R,4R,5R)-5-ethynyl-3-fluoro-4-hydroxy-5-(hydroxymethyl)tetrahydrofuran-2-yl)pyrimidin-2(1H)-one]	> 1	–	–	–
C#C[C@]1(CO)O[C@@H](n2ccc(=O)[nH]c2=O)[C@H](F)[C@@H]1O [Compound 33, 1-((2R,3R,4R,5R)-5-ethynyl-3-fluoro-4-hydroxy-5-(hydroxymethyl)tetrahydro-furan-2-yl)pyrimidine-2,4(1H,3H)-dione]	> 1	–	–	–
O=c1ccn([C@H]2C[C@H](O)[C@](CO)(CCl)O2)c(=O)[nH]1 [Compound 34, 1-((2R,4S,5R)-5-(chloromethyl)-4-hydroxy-5-(hydroxymethyl)tetrahydro-furan-2-yl)pyrimidine-2,4(1H,3H)-dione]	> 1	–	–	–
C#C[C@]1(CO)O[C@@H](n2ccc(N)nc2=O)C[C@@H]1O [Compound 41, 4-amino-1-((2R,4S,5R)-5-ethynyl-4-hydroxy-5-(hydroxymethyl)tetrahydro-furan-2-yl)pyrimidin-2(1H)-one]	> 1	–	–	–

More lines, main results first:

IC50 (THP1-Dual KO-TREX1 cells) [µM]	SMILES	IC50 [1] [µM]	IC50 (PC3 cells) [µM]	IC50 [2] [µM]
> 1	CC#C[C@]1(CO)O[C@@H](n2cnc3c(N)nc(F)nc32)C[C@@H]1O [Compound 1, (2R,3S,5R)-5-(6-amino-2-fluoro-9H-purin-9-yl)-2-(hydroxymethyl)-2-(prop-1-yn-1-yl)tetrahydrofuran-3-ol]	–	–	–
> 1	Cc1cn([C@H]2C[C@H](O)[C@](CO)(CCl)O2)c(=O)[nH]c1=O [Compound 4, 1-((2R,4S,5R)-5-(chloromethyl)-4-hydroxy-5-(hydroxymethyl)tetrahydrofuran-2-yl)-5-methylpyrimidine-2,4(1H,3H)-dione]	> 100	> 100	> 100
> 1	C#C[C@]1(CO)O[C@@H](n2cnc3c(N)nc(Cl)nc32)[C@@H](F)[C@@H]1O [Compound 5, (2R,3R,4S,5R)-5-(6-amino-2-chloro-9H-purin-9-yl)-2-ethynyl-4-fluoro-2-(hydroxymethyl)tetrahydrofuran-3-ol]	> 100	> 100	10 to 50
> 1	O=c1nc(NO)ccn1[C@H]1C[C@H](O)[C@](CO)(CCl)O1 [Compound 6, 1-((2R,4S,5R)-5-(chloromethyl)-4-hydroxy-5-(hydroxymethyl)tetrahydrofuran-2-yl)-4-(hydroxyamino)pyrimidin-2(1H)-one]	–	–	–
> 1	Cc1cn([C@H]2C[C@H](F)[C@](CO)(CCl)O2)c(=O)[nH]c1=O [Compound 7, 1-((2R,4S,5R)-5-(chloromethyl)-4-fluoro-5-(hydroxymethyl)tetrahydrofuran-2-yl)-5-methylpyrimidine-2,4(1H,3H)-dione]	> 100	> 100	> 100
> 1	Nc1nc(F)nc2c1ncn2[C@H]1C[C@H](O)[C@](CO)(CCl)O1 [Compound 8, (2R,3S,5R)-5-(6-amino-2-fluoro-9H-purin-9-yl)-2-(chloromethyl)-2-(hydroxymethyl)tetrahydrofuran-3-ol]	1 to 10	1 to 10	1 to 10
> 1	Cc1cn([C@@H]2O[C@@](CO)(CCl)[C@@H](O)[C@H]2F)c(=O)[nH]c1=O [Compound 9, 1-((2R,3R,4R,5R)-5-(chloromethyl)-3-fluoro-4-hydroxy-5-(hydroxymethyl)tetrahydrofuran-2-yl)-5-methylpyrimidine-2,4(1H,3H)-dione]	> 100	> 100	> 100
0.05 to 0.1	Nc1nc(=O)n([C@H]2C[C@H](O)[C@](CO)(CF)O2)cc1F [Compound 22, 4-amino-5-fluoro-1-((2R,4S,5R)-5-(fluoromethyl)-4-hydroxy-5-(hydroxymethyl)tetrahydrofuran-2-yl)pyrimidin-2(1H)-one]	> 100	> 100	> 100
